Assay results reported in ChEMBL document CHEMBL1132041, “Inhibition of human telomerase by PNA-cationic peptide conjugates” (Bioorg Med Chem Lett, 1999).

What follows are compounds tested against Telomerase reverse transcriptase (Homo sapiens, UniProt O14746) (assay: Inhibitory activity against human telomerase).
Telomerase reverse transcriptase, sequence (O14746 whole entry): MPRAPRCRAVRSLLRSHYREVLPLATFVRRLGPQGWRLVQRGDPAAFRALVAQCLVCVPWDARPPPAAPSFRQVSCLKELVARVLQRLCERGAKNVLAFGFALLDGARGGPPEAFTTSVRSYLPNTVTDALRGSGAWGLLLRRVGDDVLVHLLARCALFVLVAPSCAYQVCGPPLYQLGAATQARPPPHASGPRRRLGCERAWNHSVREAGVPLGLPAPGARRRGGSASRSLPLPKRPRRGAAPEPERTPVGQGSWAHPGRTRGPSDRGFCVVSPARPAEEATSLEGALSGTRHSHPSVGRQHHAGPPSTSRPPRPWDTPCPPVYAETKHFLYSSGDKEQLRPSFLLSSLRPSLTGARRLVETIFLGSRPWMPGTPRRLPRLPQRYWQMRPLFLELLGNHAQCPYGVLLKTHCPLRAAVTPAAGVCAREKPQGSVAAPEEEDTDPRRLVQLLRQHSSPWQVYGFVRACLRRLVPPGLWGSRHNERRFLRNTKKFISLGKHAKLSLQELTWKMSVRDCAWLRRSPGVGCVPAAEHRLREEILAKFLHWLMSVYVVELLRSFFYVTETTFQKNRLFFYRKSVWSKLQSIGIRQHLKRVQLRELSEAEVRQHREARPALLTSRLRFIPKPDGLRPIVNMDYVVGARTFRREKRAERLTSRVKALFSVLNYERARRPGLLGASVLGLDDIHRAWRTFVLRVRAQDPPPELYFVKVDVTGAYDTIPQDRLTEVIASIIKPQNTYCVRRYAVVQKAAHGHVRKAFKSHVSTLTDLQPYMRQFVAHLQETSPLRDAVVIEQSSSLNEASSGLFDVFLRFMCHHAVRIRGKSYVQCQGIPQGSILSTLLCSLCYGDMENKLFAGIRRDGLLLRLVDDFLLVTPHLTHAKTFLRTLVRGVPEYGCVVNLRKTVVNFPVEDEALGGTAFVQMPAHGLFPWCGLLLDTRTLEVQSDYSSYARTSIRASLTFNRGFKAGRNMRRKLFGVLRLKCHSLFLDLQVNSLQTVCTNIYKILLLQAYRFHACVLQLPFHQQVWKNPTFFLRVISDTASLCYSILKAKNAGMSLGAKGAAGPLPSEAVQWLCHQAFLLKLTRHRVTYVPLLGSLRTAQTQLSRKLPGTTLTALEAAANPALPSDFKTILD

In order of rising IC50:
1. Cc1cn(C2CC(OP(=O)(O)OCC3OC(n4cnc5c(N)ncnc54)CC3OP(=O)(O)OCC3OC(n4cnc5c(=O)[nH]c(N)nc54)CC3OP(=O)(O)OCC3OC(n4cnc5c(=O)[nH]c(N)nc54)CC3OP(=O)(O)OCC3OC(n4cnc5c(=O)[nH]c(N)nc54)CC3O)C(COP(=O)(O)C(=O)[C@H](CS)NC(=O)[C@H](CCCNC(=N)N)NC(=O)[C@H](CCCNC(=N)N)NC(=O)[C@H](CCCNC(=N)N)NC(=O)[C@H](CCCNC(=N)N)NC(=O)[C@H](CCCNC(=N)N)NC(=O)[C@H](C)N)O2)c(=O)[nH]c1=O (some centres undefined)  140 nM
2. Cc1cn(C2CC(OP(=O)(O)OCC3OC(n4cnc5c(N)ncnc54)CC3OP(=O)(O)OCC3OC(n4cnc5c(=O)[nH]c(N)nc54)CC3OP(=O)(O)OCC3OC(n4cnc5c(=O)[nH]c(N)nc54)CC3OP(=O)(O)OCC3OC(n4cnc5c(=O)[nH]c(N)nc54)CC3O)C(COP(=O)(O)C(=O)[C@H](CS)NC(=O)[C@H](CCCCN)NC(=O)[C@H](CCCCN)NC(=O)[C@H](CCCCN)NC(=O)[C@H](CCCCN)NC(=O)[C@H](CCCCN)NC(=O)[C@H](C)N)O2)c(=O)[nH]c1=O (some centres undefined)  290 nM
3. Cc1cn(C2CC(OP(=O)(O)OCC3OC(n4cnc5c(N)ncnc54)CC3OP(=O)(O)OCC3OC(n4cnc5c(N)nc(N)nc54)CC3OP(=O)(O)OCC3OC(n4cnc5c(O)nc(N)nc54)CC3OP(=O)(O)OCC3OC(n4cnc5c(O)nc(N)nc54)CC3O)C(COP(=O)(O)C(=O)[C@H](CS)NC(=O)[C@H](CCCN)NC(=O)[C@H](CCCN)NC(=O)[C@H](CCCN)NC(=O)[C@H](CCCN)NC(=O)[C@H](CCCN)NC(=O)[C@H](C)N)O2)c(=O)[nH]c1=O (some centres undefined)  450 nM
4. Cc1cn([C@H]2C[C@H](OP(=O)(O)OC[C@H]3O[C@@H](n4cnc5c(N)ncnc54)C[C@@H]3OP(=O)(O)OC[C@H]3O[C@@H](N4C=NC5C(=O)N=C(N)N=C54)C[C@@H]3OP(=O)(O)OC[C@H]3O[C@@H](N4C=NC5C(=O)N=C(N)N=C54)C[C@@H]3OP(=O)(O)OC[C@H]3O[C@@H](N4C=NC5C(=O)N=C(NC(=O)O)N=C54)C[C@@H]3O)[C@@H](COP(=O)(O)ON)O2)c(=O)[nH]c1=O (some centres undefined)  1160 nM
